Measured values taken from ChEMBL document CHEMBL5543121, “Drug Repurposing of ACT001 to Discover Novel Promising Sulfide Prodrugs with Improved Safety and Potent Activity for Neutrophil-Mediated Antifungal Immunotherapy” (J Med Chem, 2024).
Calls of active or inactive are those of the source. The rule behind the calls is not given here.

Key:
[1] = molecular target: Signal transducer and activator of transcription 3 (Homo sapiens, UniProt P40763); test: Binding affinity to Cys542 residue of human recombinant STAT3 assessed as covalent modification by measuring mass shift by LC-MS/MS analysis
Chain of Signal transducer and activator of transcription 3 (P40763 whole entry): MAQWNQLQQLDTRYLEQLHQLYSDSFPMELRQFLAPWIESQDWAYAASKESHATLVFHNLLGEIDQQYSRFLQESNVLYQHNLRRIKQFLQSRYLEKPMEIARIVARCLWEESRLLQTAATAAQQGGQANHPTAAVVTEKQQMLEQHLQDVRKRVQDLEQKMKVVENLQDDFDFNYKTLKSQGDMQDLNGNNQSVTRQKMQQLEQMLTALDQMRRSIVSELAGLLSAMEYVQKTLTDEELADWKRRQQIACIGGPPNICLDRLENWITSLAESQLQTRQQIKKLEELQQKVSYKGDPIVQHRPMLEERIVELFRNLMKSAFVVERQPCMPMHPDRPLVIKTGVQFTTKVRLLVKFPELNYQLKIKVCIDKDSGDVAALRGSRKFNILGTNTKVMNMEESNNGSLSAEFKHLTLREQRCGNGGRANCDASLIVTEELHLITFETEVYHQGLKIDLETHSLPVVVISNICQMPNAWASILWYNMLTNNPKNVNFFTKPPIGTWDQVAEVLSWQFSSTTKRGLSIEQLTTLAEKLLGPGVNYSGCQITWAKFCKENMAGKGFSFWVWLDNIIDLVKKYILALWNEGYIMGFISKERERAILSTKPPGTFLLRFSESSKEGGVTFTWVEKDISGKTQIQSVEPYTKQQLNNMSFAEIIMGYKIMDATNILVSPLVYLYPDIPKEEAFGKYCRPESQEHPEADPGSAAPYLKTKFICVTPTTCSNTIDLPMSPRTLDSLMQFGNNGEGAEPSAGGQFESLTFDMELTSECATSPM

[2] = tested on: Polymorphonuclear neutrophil; test: Inhibition of fungal curdlan induced PD-L1 protein expression in mouse polymorphonuclear neutrophils at 20 uM incubated for 16 hrs by ELISA; format: functional, cell-based
[3] = Cytotoxicity against mouse polymorphonuclear neutrophils assessed as cell viability at 20 uM incubated for 16 hrs; format: toxicity, cell-based; details: polymorphonuclear neutrophil

Structure (SMILES): C=C1C(=O)O[C@H]2[C@H]1CC[C@]1(C)O[C@@]13CC[C@@](C)(O)[C@H]23
- Activity [1]: 265 Da
- inhibition [2]: Active
- Activity [3]: Non-Toxic
